Consider 25 compounds from US7109193B2, “Tricyclic diazepines tocolytic oxytocin receptor antagonists” (Wyeth, priority 2001, dated 2006).

For the experiment, the target named is T1, human vasopressin V1a receptor subtype (Homo sapiens, UniProt P37288).
T1 construct: host or cells: CHO cells (pZeoSV vector for the Thibonnier line)
Kind of experiment: Vasopressin binding in Chinese Hamster Ovary cell membranes expressing human vasopressin V1a subtype receptors. The settings on record: CHO cell membranes, [3H]Manning ligand; for inhibition at 0.1 µM: 100 nM, values without parentheses; for IC50: values in parentheses. The method in brief: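 Membranes from CHO cells expressing human V1a receptor were incubated with [3H]Manning ligand (added as 20 μL of 8 nM) in pH 7.4 Tris buffer with MgCl2, BSA and protease inhibitors, 60 min at room temperature. Bound radioactivity was counted after filtration; values are percent inhibition at a stated concentration or IC50.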

Structures can show the parent of a compound that is named as a salt.

T1 sequence (P37288 whole entry): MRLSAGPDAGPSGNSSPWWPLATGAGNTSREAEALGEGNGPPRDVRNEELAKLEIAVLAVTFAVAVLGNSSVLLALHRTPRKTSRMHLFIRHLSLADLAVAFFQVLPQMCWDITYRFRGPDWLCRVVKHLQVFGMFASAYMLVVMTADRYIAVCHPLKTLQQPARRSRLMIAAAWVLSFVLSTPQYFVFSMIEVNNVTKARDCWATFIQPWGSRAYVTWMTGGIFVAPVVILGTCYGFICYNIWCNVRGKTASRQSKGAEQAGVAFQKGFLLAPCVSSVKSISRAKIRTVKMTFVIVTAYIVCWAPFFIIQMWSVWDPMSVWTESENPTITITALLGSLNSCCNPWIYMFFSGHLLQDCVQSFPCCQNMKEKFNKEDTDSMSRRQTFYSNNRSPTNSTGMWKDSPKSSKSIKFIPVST

Take `Cc1ccccc1-c1ccc(C(=O)N2Cc3ccc(C(=O)N(C)CCCN(C)C)n3Cc3ccccc32)cc1C` [Example 101, N-[3-(Dimethylamino)propyl]-10-[(2,2′-dimethyl[1,1′-biphenyl]-4-yl)carbonyl]-N-methyl-10,11-dihydro-5H-pyrrolo[2,1-c][1,4]benzodiazepine-3-carboxamide]: the inhibition (usually the relative decrease from the control value, in per cent) at 0.1 µM is 75%.

As to `COc1ccccc1-c1ccc(C(=O)N2Cc3ccc(C(=O)N4CC[C@@H](N(C)C)C4)n3Cc3ccccc32)cc1C` [Example 272, [(3R)-3-(Dimethylamino)pyrrolidinyl]{10-[(2′-methoxy-2-methyl[1,1′-biphenyl]-4-yl)carbonyl]-10,11-dihydro-5H-pyrrolo[2,1-c][1,4]benzodiazepin-3-yl}methanone], the IC50 – broadly, the concentration at which inhibition is half-maximal – came to 301 nM.

As to `COc1ccccc1-c1ccc(C(=O)N2Cc3ccc(C(=O)N(C)CCN(C)C)n3Cc3ccccc32)cc1` [Example 90, N-[2-(Dimethylamino)ethyl]-10-[(2′-methoxy[1,1′-biphenyl]-4-yl)carbonyl]-N-methyl-10,11-dihydro-5H-pyrrolo[2,1-c][1,4]benzodiazepine-3-carboxamide], the inhibition at 0.1 µM worked out at 63%.

As to `COc1cc(C(=O)N2Cc3ccc(C(=O)N(C)CCCN(C)C)n3Cc3ccccc32)ccc1-c1cccc2ccccc12` [Example 106, N-[3-(Dimethylamino)propyl]-10-[3-methoxy-4-(1-naphthyl)benzoyl]-N-methyl-10,11-dihydro-5H-pyrrolo[2,1-c][1,4]benzodiazepine-3-carboxamide], the inhibition at 0.1 µM was 22%.

Regarding `Cc1cc(C(=O)N2Cc3ccc(C(=O)N4CCNCC4)n3Cc3ccccc32)ccc1-c1ccccc1C(F)(F)F` [Example 7, 10,11-Dihydro-10-[[2-methyl-2′-trifluoromethyl-[1,1′-biphenyl]-4-yl]carbonyl]-3-(1-piperazinylcarbonyl)-5H-pyrrolo[2,1-c][1,4]benzodiazepine hydrochloride salt], the IC50 worked out at 2480 nM.

Take `Cc1ccccc1-c1ccc(C(=O)N2Cc3ccc(C(=O)N(C)CCN(C)C)n3Cc3ccccc32)cc1` [Example 91, N-[2-(Dimethylamino)ethyl]-N-methyl-10-[(2′-methyl[1,1′-biphenyl]-4-yl)carbonyl]-10,11-dihydro-5H-pyrrolo[2,1-c][1,4]benzodiazepine-3-carboxamide]: the inhibition at 0.1 µM is 90%.

For the compound `COc1cc(C(=O)N2Cc3ccc(C(=O)N(C)CCN(C)C)n3Cc3ccccc32)ccc1-c1ccccc1C` [Example 92, N-[2-(Dimethylamino)ethyl]-10-[(2-methoxy-2′-methyl[1,1′-biphenyl]-4-yl)carbonyl]-N-methyl-10,11-dihydro-5H-pyrrolo[2,1-c][1,4]benzodiazepine-3-carboxamide], the inhibition at 0.1 µM was found to be 78%.

`CN(C)CCN(C)C(=O)c1ccc2n1Cc1ccccc1N(C(=O)c1ccc(-c3cccc4ccccc34)cc1Cl)C2` [Example 96, 10-[2-Chloro-4-(1-naphthyl)benzoyl]-N-[2-(dimethylamino)ethyl]-N-methyl-10,11-dihydro-5H-pyrrolo[2,1-c][1,4]benzodiazepine-3-carboxamide]: the inhibition at 0.1 µM came out at 10%.

Regarding `COc1cccc(-c2cc(OC)c(C(=O)N3Cc4ccc(C(=O)NCCCN(C)C)n4Cc4ccccc43)cc2Cl)c1` [Example 79, 10-[(6-Chloro-3,3′-dimethoxy[1,1′-biphenyl]-4-yl)carbonyl]-N-[3-(dimethylamino)propyl]-10,11-dihydro-5H-pyrrolo[2,1-c][1,4]benzodiazepine-3-carboxamide], the inhibition at 0.1 µM amounted to 0%.

As to `COc1ccccc1-c1ccc(C(=O)N2Cc3ccc(C(=O)N(C)CCCN(C)C)n3Cc3ccccc32)cc1C` [Example 100, N-[3-(Dimethylamino)propyl]-10-[(2′-methoxy-2-methyl[1,1′-biphenyl]-4-yl)carbonyl]-N-methyl-10,11-dihydro-5H-pyrrolo[2,1-c][1,4]benzodiazepine-3-carboxamide], the inhibition at 0.1 µM amounted to 27%.

Turning to `COc1cccc(-c2ccc(C(=O)N3Cc4ccc(C(=O)N(C)CCN(C)C)n4Cc4ccccc43)cc2C)c1` [Example 89, N-[2-(Dimethylamino)ethyl]-10-[(3′-methoxy-2-methyl[1,1′-biphenyl]-4-yl)carbonyl]-N-methyl-10,11-dihydro-5H-pyrrolo[2,1-c][1,4]benzodiazepine-3-carboxamide], the inhibition at 0.1 µM turned out to be 50%.

Turning to `COc1cc(-c2ccccc2C)c(Cl)cc1C(=O)N1Cc2ccc(C(=O)N3CC[C@@H](N(C)C)C3)n2Cc2ccccc21` [Example 273, {10-[(6-Chloro-3-methoxy-2′-methyl[1,1′-biphenyl]-4-yl)carbonyl]-10,11-dihydro-5H-pyrrolo[2,1-c][1,4]benzodiazepin-3-yl}[(3R)-3-(dimethylamino)pyrrolidinyl]methanone], the IC50 was found to be 481 nM.

As for `COc1ccccc1-c1ccc(C(=O)N2Cc3ccc(C(=O)N(C)CCCN(C)C)n3Cc3ccccc32)cc1` [Example 103, N-[3-(Dimethylamino)propyl]-10-[(2′-methoxy[1,1′-biphenyl]-4-yl)carbonyl]-N-methyl-10,11-dihydro-5H-pyrrolo[2,1-c][1,4]benzodiazepine-3-carboxamide], the inhibition at 0.1 µM was 43%.

With `Cc1cc(C(=O)N2Cc3ccc(C(=O)N4CCCN(C)CC4)n3Cc3ccccc32)ccc1-c1ccccc1C(F)(F)F` [Example 59, (4-Methyl-1,4-diazepan-1-yl)(10-{[2-methyl-2′-(trifluoromethyl)[1,1′-biphenyl]-4-yl]carbonyl}-10,11-dihydro-5H-pyrrolo[2,1-c][1,4]benzodiazepin-3-yl)methanone], the IC50 stood at 1890 nM.

Take `COc1ccccc1-c1ccc(C(=O)N2Cc3ccc(C(=O)N4CCCN(C)CC4)n3Cc3ccccc32)cc1` [Example 61, {10-[(2′-Methoxy[1,1′-biphenyl]-4-yl)carbonyl]-10,11-dihydro-5H-pyrrolo[2,1-c][1,4]benzodiazepin-3-yl}(4-methyl-1,4-diazepan-1-yl)methanone]: the IC50 is 316 nM.

Consider `COc1cc(-c2ccccc2C)c(Cl)cc1C(=O)N1Cc2ccc(C(=O)N(C)CCN(C)C)n2Cc2ccccc21` [Example 86, 10-[(6-Chloro-3-methoxy-2′-methyl[1,1′-biphenyl]-4-yl)carbonyl]-N-[2-(dimethylamino)ethyl]-N-methyl-10,11-dihydro-5H-pyrrolo[2,1-c][1,4]benzodiazepine-3-carboxamide], for which the IC50 was found to be 172 nM.

As for `COc1cccc(-c2ccc(C(=O)N3Cc4ccc(C(=O)NCCCN(C)C)n4Cc4ccccc43)cc2OC)c1` [Example 82, 10-[(2,3′-Dimethoxy[1,1′-biphenyl]-4-yl)carbonyl]-N-[3-(dimethylamino)propyl]-10,11-dihydro-5H-pyrrolo[2,1-c][1,4]benzodiazepine-3-carboxamide], the inhibition at 0.1 µM worked out at 37%.

In the case of `COc1ccccc1-c1ccc(C(=O)N2Cc3ccc(C(=O)N4CCN(CCN5CCOCC5)CC4)n3Cc3ccccc32)cc1` [Example 207, {10-[(2′-Methoxy[1,1′-biphenyl]-4-yl)carbonyl]-10,11-dihydro-5H-pyrrolo[2,1-c][1,4]benzodiazepin-3-yl}{4-[2-(4-morpholinyl)ethyl]-1-piperazinyl}methanone], the IC50 was found to be 488 nM.

For `O=C(c1ccc(-c2cccc3ccccc23)cc1Cl)N1Cc2cccn2Cc2ccccc21` [Example 24, [2-Chloro-4-(naphthalen-1-yl)phenyl][10,11-dihydro-5H-pyrrolo[2,1-c][1,4]benzodiazepin-10-yl]methanone], the IC50 was determined as 22.5 nM.

Turning to `COc1cc(-c2ccccc2C)c(Cl)cc1C(=O)N1Cc2ccc(C(=O)N3CCN(C)CC3)n2Cc2ccccc21` [Example 47, {10-[(6-Chloro-3-methoxy-2′-methyl[1,1′-biphenyl]-4-yl)carbonyl]-10,11-dihydro-5H-pyrrolo[2,1-c][1,4]benzodiazepin-3-yl}(4-methyl-1-piperazinyl)methanone], the IC50 is 1000 nM.

Turning to `Cc1ccccc1-c1ccc(C(=O)N2Cc3ccc(C(=O)N(C)CCCN(C)C)n3Cc3ccccc32)cc1` [Example 104, N-[3-(Dimethylamino)propyl]-N-methyl-10-[(2′-methyl[1,1′-biphenyl]-4-yl)carbonyl]-10,11-dihydro-5H-pyrrolo[2,1-c][1,4]benzodiazepine-3-carboxamide], the inhibition at 0.1 µM turned out to be 85%.

Turning to `COc1ccccc1-c1ccc(C(=O)N2Cc3ccc(C(=O)N(C)CCN(C)C)n3Cc3ccccc32)cc1C` [Example 88, N-[2-(Dimethylamino)ethyl]-10-[(2′-methoxy-2-methyl[1,1′-biphenyl]-4-yl)carbonyl]-N-methyl-10,11-dihydro-5H-pyrrolo[2,1-c][1,4]benzodiazepine-3-carboxamide], the inhibition at 0.1 µM was found to be 44%.

On to `COc1cccc(-c2ccc(C(=O)N3Cc4ccc(C(=O)N(C)CCCN(C)C)n4Cc4ccccc43)cc2C)c1` [Example 102, N-[3-(Dimethylamino)propyl]-10-[(3′-methoxy-2-methyl[1,1′-biphenyl]-4-yl)carbonyl]-N-methyl-10,11-dihydro-5H-pyrrolo[2,1-c][1,4]benzodiazepine-3-carboxamide], for which the inhibition at 0.1 µM is 45%.

Turning to `Cc1cc(C(=O)N2Cc3ccc(C(=O)N4CCC[C@H]4CN4CCCC4)n3Cc3ccccc32)ccc1-c1ccccc1C(F)(F)F` [Example 258, (10-{[2-Methyl-2′-(trifluoromethyl)[1,1′-biphenyl]-4-yl]carbonyl}-10,11-dihydro-5H-pyrrolo[2,1-c][1,4]benzodiazepin-3-yl)[(2S)-2-(1-pyrrolidinylmethyl)pyrrolidinyl]methanone], the IC50 worked out at 913 nM.

`COc1ccccc1-c1ccc(C(=O)N2Cc3ccc(C(=O)N4CCN(CCN5CCOCC5)CC4)n3Cc3ccccc32)cc1C` [Example 206, {10-[(2′-Methoxy-2-methyl[1,1′-biphenyl]-4-yl)carbonyl]-10,11-dihydro-5H-pyrrolo[2,1-c][1,4]benzodiazepin-3-yl}{4-[2-(4-morpholinyl)ethyl]-1-piperazinyl}methanone]: the half-maximal inhibitory concentration (IC50) was determined as 317 nM.
